Test results published in PMC7466159, “Anti-Metastasis Fascin Inhibitors Decrease the Growth of Specific Subtypes of Cancers” (Cancers, 2020).
Where two headings read alike, the source gives them in different places.

Assays:
[1] = test system: phosphorylation of PI3K, AKT, JNK, and STAT6; experiment: Western blotting of signaling pathways in U2932 cells; assay type: cell-based; settings: 30 µM, 16 h
Experimental: (§1) We treated U2932 cells with or without NP-G2-044, and measured the potential effects of NP-G2-044 on various pathways critical for lymphoma cell growth.
(§2) The lymphoma cells were plated in 10-cm dish. After culture for 24 h, cells were incubated in serum-free medium for 16 h. Cells were then incubated in growth medium with 30 µM NP-G2-044 or dissolvent for 16 h, followed by collecting whole cell lysates or nuclear extracts as previously described.

[2] = test system: MDA-MB-231 human triple-negative breast cancer cells; experiment: Overall survival of MDA-MB-231 tumor-bearing mice; assay type: in vivo
Experimental: (§3) The numbers of metastatic MDA-MB-231 cells in lungs were determined by a clonogenic assay. The lungs were removed from each mouse once sacrificed, and the resulting cells were suspended and plated with a series of dilutions in 10-cm tissue culture dishes in medium containing 2.0 µg/mL puromycin for clonogenic growth. As these MBA-MB-231 tumor cells were stably transfected with the vector pSuper-puro, the metastasized tumor cells formed foci after 14 days, at which time they were fixed with 4% paraformaldehyde and stained with crystal violet staining solution for counting. For combination treatments with chemotherapy, MDA-MB-231 tumor cells (1 × 10^5) suspended in PBS-matrigel (v/v, 1:1) were injected subcutaneously into the abdominal mammary gland area of mice on Day 0. Starting on Day 0, 7, or 14, NP-G2-044 was given to mice once a day for 6 days every week by oral gavage at 300 mg/kg per mouse. A vehicle solvent was given to the control mice once a day for 6 days every week. Starting on day 14, doxorubicin hydrochloride (MilliporeSigma, St. Louis, MO, USA) (2 mg/kg) and cyclophosphamide monohydrate (MilliporeSigma) (60 mg/kg) were given to mice once a week for four weeks. Primary tumors were removed on day 28. The death of the mice was used as the endpoint.

[3] = in vivo; settings: mouse, plasma
Experimental: The PK parameters of NP-G2-044 were assessed following a single intravenous (IV) and single oral (PO) gavage dose administration to mice. Blood samples were collected pre-dose, and 3, 10, 30 min, 1, 1.5, 3, 6, 9, 24, 32, or 48 h after dosing. The plasma samples were then extracted and the concentrations of NP-G2-044 were determined by LC-MS/MS.
The concentrations of NP-G2-044 in plasma were determined using high performance liquid chromatography with tandem mass spectrometry (LC-MS/MS). All blood samples were transferred into a commercial tube containing potassium (K2) EDTA (ethylene diaminetetraacetic acid) and were processed for plasma. Samples were centrifuged (3000× g for 10 min at 2 to 8 °C) within one hour of collection. The assays used a Sciex API 4000 detector and nifedipine as an internal standard. The calibration ranges for NP-G2-044 were from 5.00 to 5000 ng/mL. The plasma concentration of NP-G2-044 in mice was subjected to a non-compartmental pharmacokinetic analysis by using the Phoenix WinNonlin software (version 6.3, Pharsight, Mountain View, CA, USA). The nominal dose levels and nominal sampling times were used in the calculation of all pharmacokinetic parameters. The linear/log trapezoidal rule was applied in obtaining the PK parameters.

[4] = Stability in plasma samples during bioanalysis; assay type: physicochemical; settings: after freeze-thaw, and during storage, processing and analysis
Experimental: The concentrations of NP-G2-044 in plasma were determined using high performance liquid chromatography with tandem mass spectrometry (LC-MS/MS). All blood samples were transferred into a commercial tube containing potassium (K2) EDTA (ethylene diaminetetraacetic acid) and were processed for plasma. Samples were centrifuged (3000× g for 10 min at 2 to 8 °C) within one hour of collection. The assays used a Sciex API 4000 detector and nifedipine as an internal standard. The calibration ranges for NP-G2-044 were from 5.00 to 5000 ng/mL.

[5] = test system: NCI-H660 human neuroendocrine prostate cancer cells
Experimental: To investigate the effect of NP-G2-044 on the overall survival of mice bearing NCI-H660 tumors, NCI-H660 tumor cells were injected into the prostate of male NSG mice. NCI-H660 tumor-bearing mice were randomized into two groups. In the control group, the vehicle solvent was given (marked as the “control” group) (Figure 3F). In the second group, the mice were treated with NP-G2-044 (5 days per week by an oral gavage). NP-G2-044 treatment started on Day 7.
Human neuroendocrine prostate cancer NCI-H660 cells (1 × 10^5) suspended in PBS were injected into the prostate of male NSG mice (6- to 8-week old from the Jackson Lab) on day 0 as previously described [56]. Briefly, the abdomen was cleaned with iodine solution, and a 1-cm midline incision was created to expose the prostate gland. A 29-gauge needle and a 1-mL disposable syringe were used for the injection of the cell suspension. The needle was inserted into the middle portion of the right anterior lobe, and then was directed towards the cranial portion of the lobe. The abdominal wound was closed in 2 layers with surgical sutures. Starting on Day 7, NP-G2-044 or the control solvent was given once a day for 5 days a week by oral gavage. […] The death of the mice was used as the endpoint.

[6] = Plasma protein binding assay with mouse plasma; assay type: in vitro ADME; settings: in the presence of 100% serum
[7] = test system: HT cells; experiment: Soft-agar colony formation assay, HT; assay type: cell-based; settings: 14 days, dosage-dependent
Experimental: (§4) A total of 1 × or 2 ×10^4 cells were suspended in 0.5 mL of 0.3% low melting point agar (Merck KGaA, Darmstadt, Germany) in RPMI-1640 or DMEM containing 10% FBS and control solvent or the inhibitors. This suspension was overlaid on pre-solidified with 0.6% agar in the same medium in 24-well plates as previously described. Normal growth medium containing control solvent or the inhibitors was gently layered over the cultures every 4 days for 14 days. The colonies were stained with 0.1% crystal violet for 1 h at room temperature and counted under a microscope.

[8] = test system: HCC38 triple-negative breast cancer cells; experiment: Cell growth assay, HCC38; assay type: cell-based; settings: HCC38 cells in culture, 10% serum
[9] = test system: U2932 cells; experiment: Soft-agar colony formation assay, U2932; assay type: cell-based; settings: 14 days, dosage-dependent
Experimental: as §4

[10] = test system: MDA-MB-468 triple-negative breast cancer cells; experiment: Cell growth assay, MDA-MB-468; assay type: cell-based; settings: MDA-MB-468 cells in culture, 10% serum
[11] = test system: Ly1 lymphoma cells; experiment: Cell growth sensitivity, Ly1; assay type: cell-based
[12] = test system: NF-κB nuclear translocation in U2932 cells; experiment: p65 (NF-κB) nuclear translocation, Western blotting, U2932; assay type: cell-based; settings: 30 µM, 16 h
Experimental: as §1, §2

[13] = test system: MDA-MB-231 human triple-negative breast cancer cells; settings: for inhibition of lung metastasis / IC50, metastasized tumor cells in the lungs: NSG mice, oral; for IC50, metastasized tumor cells in the lungs: six days a week, eight weeks
Experimental: We used two mouse models. In the first orthotopic spontaneous tumor metastasis mouse model, MDA-MB-231 human triple-negative breast cancer cells were injected into the orthotopic site (the mammary gland) of immuno-deficient NSG mice, and then the metastasis to the lung was monitored (Figure 2A–C). Seven days after the implantation of MDA-MB-231 tumor cells, we orally administered the mice with different concentrations of NP-G2-044 either once a day or twice a day for six days a week. After eight weeks, the mice were sacrificed and examined for metastasis in the lungs. […] Lung tumor metastasis was further verified by a histological analysis of lung sections and stained with hematoxylin and eosin (Figure 2C).
MDA-MB-231 cells (subclone LM2) (1 × 10^5) suspended in PBS-matrigel (v/v, 1:1) were injected subcutaneously into the abdominal mammary gland area of female NSG mice (6- to 8-week old from the Jackson Lab) on day 0 as previously described. Starting on Day 7, NP-G2-044 or the control solvent was given once or twice a day for 6 days every week by gavage until the eighth week. On the first day of the ninth week, the mice were killed.
as §3

[14] = test system: NF-κB nuclear translocation in HT cells; experiment: p65 (NF-κB) nuclear translocation, Western blotting, HT; assay type: cell-based; settings: 30 µM, 16 h
[15] = test system: Ly10 cells; experiment: Cell growth assay, Ly10; settings: Ly10 cells in culture, 4 days
Experimental: We then extended our search to other types of lymphoma cells. […] Both U2932 and Ly10 cells are ABC-subtype DLBCLs, and HT cells are diffuse mixed lymphoma.
For NP-G2-044 dose-dependent studies, 1 × 10^5 Ly10, U2932, or HT cells were seeded in a 12- or 24-well plate on day 0. A total of 1, 3, 10, 30, or 100 μM NP-G2-044 or control solvent was added to the plates. Cells were collected and counted on day 4. For time-dependent studies, 1 × 10^5 Ly10, U2932, or HT cells were seeded in a 12- or 24-well plate on day 0. A total of 30 μM NP-G2-044, 5 μM LY2409881, 30 μM NP-G2-044 plus 5 μM LY2409881, or control solvent was added to the plates. Cells were collected and counted on Days 2 and 4. […] The cell growth index was expressed as the fold changes of cell numbers over the starting cell number. For these assays, the old medium was changed with a fresh medium containing the control solvent or the inhibitors every two days.

Compound: Cc1occc1C(=O)Nc1nn(Cc2ccc(C(F)(F)F)cc2)c2ccccc12 [NP-G2-044]
- phosphorylation of PI3K, AKT kinase, JNK kinase, and STAT6 transcription factor [1]: no effect
- increase of median overall survival ([2]; NSG mice, compared with the control group, primary tumors removed on day 28): ~ 29%
- overall survival by start of treatment ([2]; combination with chemotherapy, NP-G2-044 starting on Day 0 and Day 7 versus Day 14): longer overall survival
- AUC(0-inf) ([3]; iv, 20 mg/kg): 7290 ± 1850 ng·h/mL
- AUC(0-t) ([3]; iv, 20 mg/kg): 7150 ± 1750 ng·h/mL
- C0 ([3]; iv, 20 mg/kg): 11300 ± 3840 ng/mL
- MRT inf ([3]; iv, 20 mg/kg): 3.34 ± 0.68 h
- MRT last ([3]; iv, 20 mg/kg): 2.81 ± 0.36 h
- Vd ([3]; iv, 20 mg/kg): 9.3 L/kg
- clearance ([3]; iv, 20 mg/kg): 48 ± 13.4 mL/min/kg
- half-life ([3]; iv, 20 mg/kg): 5.45 ± 1.58 h
- Tmax ([3]; po): 0.8 to 6 h
- AUC(0-inf) ([3]; po, 20 mg/kg): 2570 ± 568 ng·h/mL
- AUC(0-t) ([3]; po, 20 mg/kg): 2550 ± 575 ng·h/mL
- Cmax ([3]; po, 20 mg/kg): 541 ± 176 ng/mL
- MRT inf ([3]; po, 20 mg/kg): 6.46 ± 1.44 h
- MRT last ([3]; po, 20 mg/kg): 6.16 ± 1.36 h
- Tmax ([3]; po, 20 mg/kg): 0.83 ± 0.58 h
- bioavailability ([3]; po, 20 mg/kg): 35.3%
- half-life ([3]; po, 20 mg/kg): 4.36 ± 0.46 h
- AUC(0-inf) ([3]; po, 50 mg/kg): 6210 ± 1650 ng·h/mL
- AUC(0-t) ([3]; po, 50 mg/kg): 6190 ± 1650 ng·h/mL
- Cmax ([3]; po, 50 mg/kg): 678 ± 258 ng/mL
- MRT inf ([3]; po, 50 mg/kg): 7.54 ± 0.85 h
- MRT last ([3]; po, 50 mg/kg): 7.4 ± 0.75 h
- Tmax ([3]; po, 50 mg/kg): 4.17 ± 3.18 h
- bioavailability ([3]; po, 50 mg/kg): 34.1%
- half-life ([3]; po, 50 mg/kg): 3.58 ± 0.43 h
- AUC(0-inf) ([3]; po, 100 mg/kg): 14300 ± 2390 ng·h/mL
- AUC(0-t) ([3]; po, 100 mg/kg): 14300 ± 2400 ng·h/mL
- Cmax ([3]; po, 100 mg/kg): 1450 ± 157 ng/mL
- MRT inf ([3]; po, 100 mg/kg): 8.4 ± 0.41 h
- MRT last ([3]; po, 100 mg/kg): 8.33 ± 0.38 h
- Tmax ([3]; po, 100 mg/kg): 6 ± 3 h
- bioavailability ([3]; po, 100 mg/kg): 39.2%
- half-life ([3]; po, 100 mg/kg): 4.39 ± 1.56 h
- stability [4]: stable
- increase of median overall survival ([5]; male NSG mice, oral gavage 5 days per week from Day 7, compared with control group, log-rank p < 0.001): 50%
- tolerability of dosage regimen ([5]; mouse, in vivo, po): well tolerated with no signs of overt toxicity
- fraction unbound [6]: ~0.003
- number of growing colonies [7]: decreased the number of growing colonies
- growth sensitivity [8]: sensitive
- number of growing colonies [9]: decreased the number of growing colonies
- growth sensitivity [10]: sensitive
- growth sensitivity [11]: insensitive
- nuclear translocation of the p65 subunits [12]: decreased
- inhibition of lung metastasis ([13]; 100 mg/kg twice a day): almost completely inhibition
- inhibition of lung metastasis ([13]; 300 mg/kg once a day): almost complete inhibition
- IC50, metastasized tumor cells in the lungs ([13]; once a day): 78.7 mg/kg
- IC50, metastasized tumor cells in the lungs ([13]; twice a day): 29.2 mg/kg
- tolerability of dosage regimen ([13]; mouse, in vivo): well tolerated with no signs of overt toxicity
- nuclear translocation of the p65 subunits [14]: also observed
- effect on cell growth [15]: inhibitory effect
